Tests used:
Tubulin = target: T1, Tubulin (Sus scrofa, UniProt P02550+P02554); assay: In vitro microtubule assembly (tubulin polymerisation) assay; assay type: biochemical; conditions: treatment concentrations 0.1, 1, 5, 10 μM; mean ± SD of three experiments
T1 construct: purchased Cytoskeleton T240 (kit BK006P)
Experimental: The assay was performed using the tubulin polymerisation kit (BK006P,Cytoskeleton). Pure tubulin (cat. # T240) was equilibrated in 80 mM PIPES, 1 mM EGTA, 1 mM MgCl2, pH 6.8 buffer (BRB80) and centrifuged at 75 000 rpm for 10 min in an TLA-100 rotor in a centrifuge.

Ishikawa cells [1] = assay: Acridine orange staining, autophagy; assay type: cell-based, human; conditions: Ishikawa cells, 0.1, 0.5 and 1 µM
Experimental: Compound 14 was evaluated for its ability to induce autophagy by acridine orange staining assay. […] This shift towards red fluorescence represents an elevation in autophagic flux, reflecting an active process of cellular degradation and recycling.
The Autophagy induction ability of compound 14 was assessed by acridine orange staining which is used to measure the autophagic acidic vesicular organnelles. Ishikawa cell were seeded in a six-well plate and treated with compound 14 for 48 h. Incubation of the cells was done with 1 mg/mL Acridine orange (Cat no. A9231) before the termination of the experiment. Cells were then washed with PBS and then analysed with a fluorescence microscope. […] A9231.

Ishikawa cells [2] = assay: Intracellular ROS (DCFDA staining); assay type: cell-based, human; conditions: Ishikawa cells, 100, 500 and 1000 nM, 24 h, vs untreated control
From the text: The intracellular ROS levels in control and compound 14-treated cells were examined using the DCFDA fluorescent dye.
Dichlorodihydrofluorescin diacetate (DCFHDA) is a fluorogenic dye that measures hydroxyl, peroxyl, and other reactive oxygen species (ROS) activity within the cell. The oxidative conversion of DCFH-DA to DCF (2′, 7′ -dichlorofluorescein) leads to the detection of intracellular ROS. As such, an increase in intracellular ROS is indicative of apoptosis in cancer cells Ishikawa cells were treated with compound-14 at 100, 500, and 1000 nM concentrations for 24 h. After 24h cells were stained with DCFHDA (20 µM) (Cat no, 287810) for 45 min. After 45 min, cells were washed with PBS buffer and analysed with a fluorescence microscope.

Ishikawa cells [3] = assay: Cell cycle analysis (flow cytometry); assay type: cell-based, human; conditions: 0.5 µM and 1 µM, 48 h, vs control group
Experimental: Furthermore, the regulatory effect of compound 14 in the cell cycle distribution of Ishikawa cancer cells was evaluated via flow cytometric analysis. Ishikawa cells seeded on a 6-well plate (3 × 10^5 cells/well) were treated with compound 14 for 48 h. After 48 h treatment of Ishikawa cells with compound 14, the cell cycle started to be arrested at the G2/M phase.
Cells were treated with compound 14 (10, 50, 100, 500 and 1000 nM) for […], collected and washed once with PBS. The pellet was then fixed in 70% ethanol overnight, followed by one washing with PBS and incubation with RNAse A for 90 min at 37 °C. Cells were then stained with PI and acquired in FACS. Analysis of the data was done by Modfit software (Verity Software House Inc., Topsham, ME) for the proportions of different cell cycle phases.[69]

[4] = tested on: CDK1 protein in Ishikawa cells; assay: Western blotting, cell cycle proteins; assay type: cell-based, human; conditions: 24 h treatment
Experimental: Western blot analysis was performed to assess the involvement of proteins in the cell cycle arrest effects of compound 14 on Ishikawa cells.
Ishikawa cells were treated with compound-14 at 100, 500, and 1000 nM concentrations for 24 h. After 24h cells were collected and centrifuged at 400 g, washed in PBS and cell pellets were lysed in RIPA buffer in preparation of the whole cell lysate. Supernatants were collected and proteins were estimated using the Bradford reagent. An equal amount of protein (60–80 µg) was loaded into each well for SDS-PAGE. Blocking was done with 5% BSA at room temperature with shaking for 2 h. After the SDS page run was completed, we washed the PVDF membrane and then blocking was done. Blots were incubated with different primary antibodies(1:1000 dilutions), and secondary antibodies (1:10 000 dilutions) and chemiluminescence was captured on Chemidoc after incubating the blots in ECL plus solution.
Primary Antibodies: LC3B Antibody (Cell signalling Technology, Cat No:2775), Cyclin B1 (Cell signalling Technology, Cat No:4138), SKP-2 (Cell signalling Technology, Cat No:4358), CDK1 (Abcam, Anti-CDK1 antibody [A17]), cdc25c (Cell signalling Technology, Cat No:4688); internal control: Actin (Sigma Aldrich, Cat No: A5441);

T1 sequence (P02550 whole entry): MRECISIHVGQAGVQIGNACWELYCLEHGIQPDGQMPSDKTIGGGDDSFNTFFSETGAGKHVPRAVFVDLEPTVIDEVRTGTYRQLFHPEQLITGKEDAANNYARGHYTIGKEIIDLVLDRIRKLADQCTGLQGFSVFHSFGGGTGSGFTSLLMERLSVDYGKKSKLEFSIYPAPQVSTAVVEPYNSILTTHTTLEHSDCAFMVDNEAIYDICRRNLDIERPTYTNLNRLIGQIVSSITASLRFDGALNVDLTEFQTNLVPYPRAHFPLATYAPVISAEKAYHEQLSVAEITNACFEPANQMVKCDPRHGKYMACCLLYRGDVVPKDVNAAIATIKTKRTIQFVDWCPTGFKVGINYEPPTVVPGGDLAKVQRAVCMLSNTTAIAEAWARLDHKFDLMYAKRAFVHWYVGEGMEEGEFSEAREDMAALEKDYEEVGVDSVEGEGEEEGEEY
T1 sequence (P02554 whole entry): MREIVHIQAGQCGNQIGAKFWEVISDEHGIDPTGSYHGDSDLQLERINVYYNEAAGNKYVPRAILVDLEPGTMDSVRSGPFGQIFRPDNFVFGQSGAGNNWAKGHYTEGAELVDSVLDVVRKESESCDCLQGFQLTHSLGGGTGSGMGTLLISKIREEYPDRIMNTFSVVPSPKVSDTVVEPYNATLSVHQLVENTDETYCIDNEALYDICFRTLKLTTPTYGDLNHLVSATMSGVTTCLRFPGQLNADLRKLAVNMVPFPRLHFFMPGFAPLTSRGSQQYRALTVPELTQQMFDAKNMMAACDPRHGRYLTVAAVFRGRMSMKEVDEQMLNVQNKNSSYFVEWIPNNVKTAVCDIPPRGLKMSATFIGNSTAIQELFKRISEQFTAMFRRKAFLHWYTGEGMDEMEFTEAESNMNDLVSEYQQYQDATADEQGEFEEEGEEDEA

IC50 (Tubulin): 1.4 ± 0.3 µM
Compound: O=c1cc(-c2ccc(F)cc2)oc2cc(-c3ccoc3)ccc12 [Compound 14, 2–(4-fluorophenyl)-7-(furan-3-yl)-4H-chromen-4-one]
Autophagy induction (acridine orange staining) (Ishikawa cells [1]): induces autophagy by increasing autophagic flux in a concentration-dependent manner | Intracellular ROS levels (DCFDA fluorescence) (Ishikawa cells [2]): significant increase in fluorescence intensity | Cell cycle distribution (G2/M phase arrest) (Ishikawa cells [3]): significant increase in G2/M phase cell cycle arrest | Expression of CDK1 protein (western blot) [4]: downregulated the expression of CDK1 protein

From PMC10627047, “Flavone-based dual PARP-Tubulin inhibitor manifesting efficacy against endometrial cancer” (Journal of Enzyme Inhibition and Medicinal Chemistry, 2023)
